Assay: RP, Waters ACQUITY UPLC BEH C8, 100 × 2.1 mm, 1.7 µm, 55 °C, 0.6 mL/min, estimated dead time 0.37 min; A: 50% water + 25% acetonitrile + 25% isopropanol + 0.05% acetic acid + 20 µM phosphoric acid + 5 mM ammonium acetate; B: 50% acetonitrile + 50% isopropanol + 0.05% acetic acid + 5 mM ammonium acetate; gradient (min/%B) 0/1 0.1/1 2/30 11.5/90 12/99.9 12.5/99.9 12.55/65 12.65/30 12.75/1 12.95/1 13.25/1
Details: stereoisomer not certain

Row | Structure (SMILES) | LC retention time [min]
1 | CCCCCCCCCCCCCC=CC(O)C(COP(=O)([O-])OCC[N+](C)(C)C)NC(=O)CCCCCCCCCCCCCCCCCCC (configuration not stated) [SM(d18:1/20:0)] | 7.12
2 | CCCCCCCCCCCCCC=CC(O)C(COP(=O)([O-])OCC[N+](C)(C)C)NC(=O)CCCCCCCCCCCCCCCCCCCCC (configuration not stated) [SM(d18:1/22:0)] | 7.79
3 | CCCCCCCCCCCCCC=CC(O)C(COP(=O)([O-])OCC[N+](C)(C)C)NC(=O)CCCCCCCCCCCCCCCCCCCCCC (configuration not stated) [SM(d18:1/23:0)] | 8.1
4 | CCCCCCCCCCCCCC=CC(O)C(COP(=O)([O-])OCC[N+](C)(C)C)NC(=O)CCCCCCCCCCCCCCCCCCCCCCC (configuration not stated) [SM(d18:1/24:0)] | 8.4
5 | CCCCCCCCCCCCCCC=CC(O)C(COP(=O)([O-])OCC[N+](C)(C)C)NC(=O)CCCCCCCCCCCCCCC (configuration not stated) [SM(d19:1/16:0)] | 5.95
6 | CCCCCCCCCCCCCCC=CC(O)C(COP(=O)([O-])OCC[N+](C)(C)C)NC(=O)CCCCCCCCCCCCCCCCC (configuration not stated) [SM(d19:1/18:0)] | 6.66
7 | CCCCCCCCCCCCCC=CC(O)C(N)COP(=O)(O)O (configuration not stated) [Sphingosine-1-phosphate] | 1.52
8 | CCCCCCCCCCCCCCCCCC(=O)OC(CC(=O)[O-])C[N+](C)(C)C (configuration not stated) [Stearoylcarnitine CAR(18:0)] | 2.3
9 | CCCCCCCCCCCCCCCCCCCCCCCC(=O)OC(CC(=O)[O-])C[N+](C)(C)C (configuration not stated) [Tetracosanoylcarnitine CAR(24:0)] | 4.34
10 | CCCCCCCCCCCCCC(=O)OC(CC(=O)[O-])C[N+](C)(C)C (configuration not stated) [Tetradecanoylcarnitine CAR(14:0)] | 1.26
11 | CC(C=CC=C(C)C=CC1=C(C)CC(O)CC1(C)C)=CC=CC=C(C)C=CC=C(C)C=CC1=C(C)CC(O)CC1(C)C (configuration not stated) [Zeaxanthin] | 3.6
12 | CC(C)=CCCC(C)=CCCC(C)=CC=CC(C)=CC=CC=C(C)C=CC=C(C)CCC=C(C)CCC=C(C)C [Zeta-carotene] | 8.28

From the RepoRT retention time repository
